Test results published in ChEMBL document CHEMBL4020788, “Synthesis, SAR and molecular docking studies of benzo[d]thiazole-hydrazones as potential antibacterial and antifungal agents” (2017).
The source made the active and inactive calls. The rule behind the calls is not given here.

Experiments:
Assay type in all cases: functional
[1] = system: Fusarium oxysporum; experiment: Antifungal activity against Fusarium oxysporum at 100 ug/ml after 48 hrs by agar well diffusion method; conditions: for zone of inhibition at 100 µg/mL: read-out: DIZ
[2] = system: Staphylococcus aureus; experiment: Antibacterial activity against methicillin resistant Staphylococcus aureus MRSA090 at 75 ug/ml after 24 hrs by agar well diffusion method; conditions: for zone of inhibition at 75 µg/mL: MRSA090, 24 h, read-out: DIZ
[3] = system: Staphylococcus aureus; experiment: Antibacterial activity against Staphylococcus aureus at 100 ug/ml after 24 hrs by agar well diffusion method
[4] = system: Staphylococcus aureus; experiment: Antibacterial activity against methicillin resistant Staphylococcus aureus MRSA090 at 25 ug/ml after 24 hrs by agar well diffusion method; conditions: for zone of inhibition at 25 µg/mL: MRSA090, 24 h, read-out: DIZ
[5] = system: Bacillus subtilis; experiment: Antibacterial activity against Bacillus subtilis at 50 ug/ml after 24 hrs by agar well diffusion method; conditions: for zone of inhibition at 50 µg/mL: read-out: DIZ
[6] = system: Escherichia coli; experiment: Antibacterial activity against Escherichia coli at 75 ug/ml after 24 hrs by agar well diffusion method; conditions: for zone of inhibition at 75 µg/mL: read-out: DIZ
[7] = system: Fusarium oxysporum; experiment: Antifungal activity against Fusarium oxysporum at 50 ug/ml after 48 hrs by agar well diffusion method
[8] = system: Bacillus subtilis; experiment: Antibacterial activity against Bacillus subtilis at 75 ug/ml after 24 hrs by agar well diffusion method; conditions: for zone of inhibition at 75 µg/mL: read-out: DIZ
[9] = system: Fusarium verticillioides; experiment: Antifungal activity against Fusarium moniliforme at 75 ug/ml after 48 hrs by agar well diffusion method; conditions: for zone of inhibition at 75 µg/mL: read-out: DIZ
[10] = system: Fusarium oxysporum; experiment: Antifungal activity against Fusarium oxysporum at 25 ug/ml after 48 hrs by agar well diffusion method
[11] = system: Fusarium verticillioides; experiment: Antifungal activity against Fusarium moniliforme at 50 ug/ml after 48 hrs by agar well diffusion method; conditions: for zone of inhibition at 50 µg/mL: read-out: DIZ
[12] = system: Staphylococcus aureus; experiment: Antibacterial activity against Staphylococcus aureus at 25 ug/ml after 24 hrs by agar well diffusion method
[13] = system: Staphylococcus aureus; experiment: Antibacterial activity against methicillin resistant Staphylococcus aureus MRSA090 at 50 ug/ml after 24 hrs by agar well diffusion method; conditions: for zone of inhibition at 50 µg/mL: MRSA090, 24 h, read-out: DIZ
[14] = system: Klebsiella pneumoniae; experiment: Antibacterial activity against Klebsiella pneumoniae at 50 ug/ml after 24 hrs by agar well diffusion method; conditions: for zone of inhibition at 50 µg/mL: read-out: DIZ
[15] = system: Fusarium verticillioides; experiment: Antifungal activity against Fusarium moniliforme at 25 ug/ml after 48 hrs by agar well diffusion method; conditions: for zone of inhibition at 25 µg/mL: read-out: DIZ
[16] = system: Fusarium verticillioides; experiment: Antifungal activity against Fusarium moniliforme at 100 ug/ml after 48 hrs by agar well diffusion method; conditions: for zone of inhibition at 100 µg/mL: read-out: DIZ
[17] = system: Bacillus subtilis; experiment: Antibacterial activity against Bacillus subtilis at 25 ug/ml after 24 hrs by agar well diffusion method; conditions: for zone of inhibition at 25 µg/mL: read-out: DIZ
[18] = system: Aspergillus niger; experiment: Antifungal activity against Aspergillus niger at 25 ug/ml after 48 hrs by agar well diffusion method; conditions: for zone of inhibition at 25 µg/mL: read-out: DIZ
[19] = system: Bacillus subtilis; experiment: Antibacterial activity against Bacillus subtilis at 100 ug/ml after 24 hrs by agar well diffusion method; conditions: for zone of inhibition at 100 µg/mL: read-out: DIZ
[20] = system: Escherichia coli; experiment: Antibacterial activity against Escherichia coli at 25 ug/ml after 24 hrs by agar well diffusion method; conditions: for zone of inhibition at 25 µg/mL: read-out: DIZ
[21] = system: Staphylococcus aureus; experiment: Antibacterial activity against Staphylococcus aureus at 75 ug/ml after 24 hrs by agar well diffusion method
[22] = system: Klebsiella pneumoniae; experiment: Antibacterial activity against Klebsiella pneumoniae at 25 ug/ml after 24 hrs by agar well diffusion method; conditions: for zone of inhibition at 25 µg/mL: read-out: DIZ
[23] = system: Escherichia coli; experiment: Antibacterial activity against Escherichia coli at 100 ug/ml after 24 hrs by agar well diffusion method; conditions: for zone of inhibition at 100 µg/mL: read-out: DIZ
[24] = system: Fusarium oxysporum; experiment: Antifungal activity against Fusarium oxysporum at 75 ug/ml after 48 hrs by agar well diffusion method
[25] = system: Staphylococcus aureus; experiment: Antibacterial activity against methicillin resistant Staphylococcus aureus MRSA090 at 100 ug/ml after 24 hrs by agar well diffusion method; conditions: for zone of inhibition at 100 µg/mL: MRSA090, 24 h, read-out: DIZ
[26] = system: Escherichia coli; experiment: Antibacterial activity against Escherichia coli at 50 ug/ml after 24 hrs by agar well diffusion method; conditions: for zone of inhibition at 50 µg/mL: read-out: DIZ
[27] = system: Aspergillus niger; experiment: Antifungal activity against Aspergillus niger at 50 ug/ml after 48 hrs by agar well diffusion method; conditions: for zone of inhibition at 50 µg/mL: read-out: DIZ
[28] = system: Klebsiella pneumoniae; experiment: Antibacterial activity against Klebsiella pneumoniae at 75 ug/ml after 24 hrs by agar well diffusion method; conditions: for zone of inhibition at 75 µg/mL: read-out: DIZ
[29] = system: Staphylococcus aureus; experiment: Antibacterial activity against Staphylococcus aureus at 50 ug/ml after 24 hrs by agar well diffusion method
[30] = system: Klebsiella pneumoniae; experiment: Antibacterial activity against Klebsiella pneumoniae at 100 ug/ml after 24 hrs by agar well diffusion method; conditions: for zone of inhibition at 100 µg/mL: read-out: DIZ
[31] = system: Aspergillus niger; experiment: Antifungal activity against Aspergillus niger at 100 ug/ml after 48 hrs by agar well diffusion method; conditions: for zone of inhibition at 100 µg/mL: read-out: DIZ
[32] = system: Aspergillus niger; experiment: Antifungal activity against Aspergillus niger at 75 ug/ml after 48 hrs by agar well diffusion method; conditions: for zone of inhibition at 75 µg/mL: read-out: DIZ

Cc1cccc2nc(N/N=C/CC(C)C)sc12
diameter of the inhibition zone (DIZ) [1]: inactive | diameter of the inhibition zone (DIZ) [2]: inactive | diameter of the inhibition zone (DIZ) [3]: inactive | diameter of the inhibition zone (DIZ) [4]: inactive | diameter of the inhibition zone (DIZ) [5]: inactive | diameter of the inhibition zone (DIZ) [6]: inactive | diameter of the inhibition zone (DIZ) [7]: inactive | diameter of the inhibition zone (DIZ) [8]: inactive | diameter of the inhibition zone (DIZ) [9]: inactive | diameter of the inhibition zone (DIZ) [10]: inactive | diameter of the inhibition zone (DIZ) [11]: inactive | diameter of the inhibition zone (DIZ) [12]: inactive | diameter of the inhibition zone (DIZ) [13]: inactive | diameter of the inhibition zone (DIZ) [14]: inactive | diameter of the inhibition zone (DIZ) [15]: inactive | diameter of the inhibition zone (DIZ) [16]: inactive | diameter of the inhibition zone (DIZ) [17]: inactive | diameter of the inhibition zone (DIZ) [18]: inactive | diameter of the inhibition zone (DIZ) [19]: inactive | diameter of the inhibition zone (DIZ) [20]: inactive | diameter of the inhibition zone (DIZ) [21]: inactive | diameter of the inhibition zone (DIZ) [22]: inactive | diameter of the inhibition zone (DIZ) [23]: inactive | diameter of the inhibition zone (DIZ) [24]: inactive | diameter of the inhibition zone (DIZ) [25]: inactive | diameter of the inhibition zone (DIZ) [26]: inactive | diameter of the inhibition zone (DIZ) [27]: inactive | diameter of the inhibition zone (DIZ) [28]: inactive | diameter of the inhibition zone (DIZ) [29]: inactive | diameter of the inhibition zone (DIZ) [30]: inactive | diameter of the inhibition zone (DIZ) [31]: inactive | diameter of the inhibition zone (DIZ) [32]: inactive

COc1ccc(/C=N/Nc2nc3cccc(C)c3s2)cc1Br
zone of inhibition at 100 µg/mL [1]: 10 mm | zone of inhibition at 75 µg/mL [2]: 16 mm | diameter of the inhibition zone (DIZ) [3]: inactive | zone of inhibition at 25 µg/mL [4]: 8 mm | zone of inhibition at 50 µg/mL [5]: 8 mm | zone of inhibition at 75 µg/mL [6]: 13 mm | diameter of the inhibition zone (DIZ) [7]: inactive | zone of inhibition at 75 µg/mL [8]: 11 mm | zone of inhibition at 75 µg/mL [9]: 13 mm | diameter of the inhibition zone (DIZ) [10]: inactive | zone of inhibition at 50 µg/mL [11]: 11 mm | diameter of the inhibition zone (DIZ) [12]: inactive | zone of inhibition at 50 µg/mL [13]: 12 mm | zone of inhibition at 50 µg/mL [14]: 11 mm | zone of inhibition at 25 µg/mL [15]: 7 mm | zone of inhibition at 100 µg/mL [16]: 17 mm | zone of inhibition at 25 µg/mL [17]: 4 mm | zone of inhibition at 25 µg/mL [18]: 8 mm | zone of inhibition at 100 µg/mL [19]: 16 mm | zone of inhibition at 25 µg/mL [20]: 7 mm | diameter of the inhibition zone (DIZ) [21]: inactive | zone of inhibition at 25 µg/mL [22]: 7 mm | zone of inhibition at 100 µg/mL [23]: 16 mm | diameter of the inhibition zone (DIZ) [24]: inactive | zone of inhibition at 100 µg/mL [25]: 18 mm | zone of inhibition at 50 µg/mL [26]: 9 mm | zone of inhibition at 50 µg/mL [27]: 11 mm | zone of inhibition at 75 µg/mL [28]: 14 mm | diameter of the inhibition zone (DIZ) [29]: inactive | zone of inhibition at 100 µg/mL [30]: 16 mm | zone of inhibition at 100 µg/mL [31]: 18 mm | zone of inhibition at 75 µg/mL [32]: 14 mm

Cc1cccc2nc(N/N=C/c3ccc(Br)cc3)sc12
zone of inhibition at 100 µg/mL [1]: 29 mm | zone of inhibition at 75 µg/mL [2]: 15 mm | zone of inhibition at 100 µg/mL ([3]; read-out: DIZ): 9 mm | zone of inhibition at 25 µg/mL [4]: 9 mm | zone of inhibition at 50 µg/mL [5]: 7 mm | zone of inhibition at 75 µg/mL [6]: 11 mm | zone of inhibition at 50 µg/mL ([7]; read-out: DIZ): 18 mm | zone of inhibition at 75 µg/mL [8]: 11 mm | zone of inhibition at 75 µg/mL [9]: 24 mm | zone of inhibition at 25 µg/mL ([10]; read-out: DIZ): 13 mm | zone of inhibition at 50 µg/mL [11]: 17 mm | diameter of the inhibition zone (DIZ) [12]: inactive | zone of inhibition at 50 µg/mL [13]: 11 mm | zone of inhibition at 50 µg/mL [14]: 11 mm | zone of inhibition at 25 µg/mL [15]: 12 mm | zone of inhibition at 100 µg/mL [16]: 28 mm | zone of inhibition at 25 µg/mL [17]: 4 mm | zone of inhibition at 25 µg/mL [18]: 14 mm | zone of inhibition at 100 µg/mL [19]: 13 mm | zone of inhibition at 25 µg/mL [20]: 3 mm | zone of inhibition at 75 µg/mL ([21]; read-out: DIZ): 5 mm | zone of inhibition at 25 µg/mL [22]: 6 mm | zone of inhibition at 100 µg/mL [23]: 14 mm | zone of inhibition at 75 µg/mL ([24]; read-out: DIZ): 23 mm | zone of inhibition at 100 µg/mL [25]: 19 mm | zone of inhibition at 50 µg/mL [26]: 7 mm | zone of inhibition at 50 µg/mL [27]: 18 mm | zone of inhibition at 75 µg/mL [28]: 14 mm | diameter of the inhibition zone (DIZ) [29]: inactive | zone of inhibition at 100 µg/mL [30]: 17 mm | zone of inhibition at 100 µg/mL [31]: 28 mm | zone of inhibition at 75 µg/mL [32]: 23 mm
